The record followed here is US11149037B2, “Pyrazole MAGL inhibitors” (H. Lundbeck A/S, priority 2017, dated 2021).

Structures are written as SMILES.

Format in all cases: biochemical
Assay [1] has as its target FAAH (Mus musculus (Mouse), UniProt O08914). As to the kind of experiment: In vitro competitive activity-based protein profiling, mouse proteomes (brain membrane fraction or cell lysates). The note with it: mouse proteome, read-out: FAAH % inh. 1 μM (mouse). In a few lines:
(§1)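 Activity of MAGL and FAAH was quantified from fluorescent gel band intensities. Beforehand, inhibitors at several concentrations competed against subsequent probe labelling (FP-Rh, JW912 or HT-01) in species-matched proteomes, each step 30 min at 37° C.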

For assay [2], the target named is MAGL (Mus musculus (Mouse), UniProt O35678). The description is as above. The note with it: mouse proteome, read-out: MAGL % inh. 1 μM (mouse). A digest of the protocol: as §1
Chain of MAGL (Mus musculus (Mouse), UniProt O35678) (O35678 whole entry): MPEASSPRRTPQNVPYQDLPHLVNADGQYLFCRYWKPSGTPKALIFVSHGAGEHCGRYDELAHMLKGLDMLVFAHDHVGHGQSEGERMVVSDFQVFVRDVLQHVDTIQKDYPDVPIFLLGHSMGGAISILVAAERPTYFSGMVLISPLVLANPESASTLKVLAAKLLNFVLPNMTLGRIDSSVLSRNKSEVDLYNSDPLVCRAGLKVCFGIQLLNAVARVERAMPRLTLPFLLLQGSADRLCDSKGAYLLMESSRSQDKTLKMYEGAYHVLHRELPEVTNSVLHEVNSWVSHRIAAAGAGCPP
In assay [3] the target is FAAH (Homo sapiens (Human), UniProt O00519). Nature of the assay: In vitro competitive activity-based protein profiling, human proteomes (prefrontal cortex or PC3 cell membrane fractions). The note with it: 1 μM, human proteome; read-out: FAAH % inh. 1 μM (human). A digest of the protocol: as §1
Chain of FAAH (Homo sapiens (Human), UniProt O00519) (O00519 whole entry): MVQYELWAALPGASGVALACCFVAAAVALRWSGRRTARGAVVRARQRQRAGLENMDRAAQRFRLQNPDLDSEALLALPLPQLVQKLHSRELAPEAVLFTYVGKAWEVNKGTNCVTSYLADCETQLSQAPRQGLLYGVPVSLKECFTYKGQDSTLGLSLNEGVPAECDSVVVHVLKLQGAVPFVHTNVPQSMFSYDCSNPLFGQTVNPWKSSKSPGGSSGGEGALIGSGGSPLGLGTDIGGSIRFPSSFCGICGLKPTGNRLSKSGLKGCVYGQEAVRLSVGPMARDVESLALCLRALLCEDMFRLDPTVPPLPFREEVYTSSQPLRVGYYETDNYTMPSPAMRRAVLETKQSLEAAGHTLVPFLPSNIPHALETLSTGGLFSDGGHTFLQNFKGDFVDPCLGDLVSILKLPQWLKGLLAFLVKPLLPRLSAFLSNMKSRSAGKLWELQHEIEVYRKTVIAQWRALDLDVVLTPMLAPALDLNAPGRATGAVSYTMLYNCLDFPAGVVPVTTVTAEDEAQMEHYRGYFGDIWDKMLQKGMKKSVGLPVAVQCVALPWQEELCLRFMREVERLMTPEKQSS
Assay [4] addresses MAGL (Homo sapiens (Human), UniProt Q99685). The description is as above. The note with it: 1 μM, human proteome; read-out: MAGL % inh. 1 μM (human). In a few lines:
as §1

Chain of MAGL (Homo sapiens (Human), UniProt Q99685) (Q99685 whole entry): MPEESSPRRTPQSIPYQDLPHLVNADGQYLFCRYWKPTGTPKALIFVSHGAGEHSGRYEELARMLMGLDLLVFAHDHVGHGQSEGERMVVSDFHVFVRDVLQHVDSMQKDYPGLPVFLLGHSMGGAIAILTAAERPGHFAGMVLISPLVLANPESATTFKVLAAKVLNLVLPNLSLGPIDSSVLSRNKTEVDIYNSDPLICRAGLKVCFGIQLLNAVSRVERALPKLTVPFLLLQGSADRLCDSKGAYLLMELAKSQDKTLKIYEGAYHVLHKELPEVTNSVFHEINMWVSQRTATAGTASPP
Chain of FAAH (Mus musculus (Mouse), UniProt O08914) (O08914 whole entry): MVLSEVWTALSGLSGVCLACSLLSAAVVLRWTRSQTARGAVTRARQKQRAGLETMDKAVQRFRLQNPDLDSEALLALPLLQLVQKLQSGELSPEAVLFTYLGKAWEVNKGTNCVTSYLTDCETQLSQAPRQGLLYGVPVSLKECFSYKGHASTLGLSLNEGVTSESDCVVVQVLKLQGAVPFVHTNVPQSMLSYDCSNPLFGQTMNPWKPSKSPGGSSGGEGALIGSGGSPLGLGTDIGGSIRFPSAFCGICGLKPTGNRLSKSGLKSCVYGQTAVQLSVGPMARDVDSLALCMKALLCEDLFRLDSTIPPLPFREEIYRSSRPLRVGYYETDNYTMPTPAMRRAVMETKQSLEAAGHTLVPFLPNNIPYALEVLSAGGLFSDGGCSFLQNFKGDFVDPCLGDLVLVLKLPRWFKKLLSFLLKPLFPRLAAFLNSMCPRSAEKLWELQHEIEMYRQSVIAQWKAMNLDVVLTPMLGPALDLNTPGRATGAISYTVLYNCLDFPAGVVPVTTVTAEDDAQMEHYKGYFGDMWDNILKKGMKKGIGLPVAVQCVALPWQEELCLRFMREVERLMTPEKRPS

For `CC1CN(C(=O)n2ccc(NS(C)(=O)=O)n2)CCN1Cc1ccc(C(F)(F)F)cc1N1CCCC1` (centres unmarked) [Example 88, N-(1-(3-Methyl-4-(2-(pyrrolidin-1-yl)-4-(trifluoromethyl)benzyl)piperazine-1-carbonyl)-1H-pyrazol-3-yl)methanesulfonamide], the inhibition at 1 µM in assay [1] is 0 to 25%; in assay [2], more than 75%; in assay [3] it was 0 to 25%; in assay [4], more than 75%.

For the compound `CS(=O)(=O)Nc1ccn(C(=O)N2CCN(Cc3ccc(C(F)(F)F)cc3S(=O)(=O)C3CC3)CC2)n1` [Example 89, N-(1-(4-(2-(Cyclopropylsulfonyl)-4-(trifluoromethyl)benzyl)piperazine-1-carbonyl)-1H-pyrazol-3-yl)methanesulfonamide], the inhibition at 1 µM is 0 to 25% in assay [1], more than 75% in assay [2], 0 to 25% in assay [3] and more than 75% in assay [4].

On to `CN(Cc1ccc(C(F)(F)F)nc1N1CCCC1)C1(C)CCN(C(=O)n2ccc(NS(C)(=O)=O)n2)CC1` [Example 91, N-(1-(4-Methyl-4-(methyl((2-(pyrrolidin-1-yl)-6-(trifluoromethyl)pyridin-3-yl)methyl)amino)piperidine-1-carbonyl)-1H-pyrazol-3-yl)methanesulfonamide], for which the inhibition at 1 µM was 50 to 75% in assay [1], more than 75% in assay [2], 25 to 50% in assay [3] and more than 75% in assay [4].

In the case of `CS(=O)(=O)Nc1ccn(C(=O)N2CCC(Oc3ccc(C(F)(F)F)cc3N3C4CCC3COC4)CC2)n1` [Example 92, N-(1-(4-(2-(3-Oxa-8-azabicyclo[3.2.1]octan-8-yl)-4-(trifluoromethyl)phenoxy)piperidine-1-carbonyl)-1H-pyrazol-3-yl)methanesulfonamide], the inhibition at 1 µM in assay [1] is 0 to 25%; in assay [2], more than 75%; in assay [3], 0 to 25%; in assay [4] it was more than 75%.

For `CS(=O)(=O)Nc1ccn(C(=O)N2CCC(Oc3ccc(C(F)(F)F)nc3N3CCCC3)CC2)n1` [Example 95, N-(1-(4-((2-(Pyrrolidin-1-yl)-6-(trifluoromethyl)pyridin-3-yl)oxy)piperidine-1-carbonyl)-1H-pyrazol-3-yl)methanesulfonamide], the inhibition at 1 µM is 0 to 25% in assay [1], more than 75% in assay [2], 0 to 25% in assay [3] and more than 75% in assay [4].

With `CN(Cc1ccc(C(F)(F)F)cc1N1CCC(C(=O)O)C1)C1(C)CCN(C(=O)n2ccc(NS(C)(=O)=O)n2)CC1` (centres unmarked) [Example 97, 1-(2-((Methyl(4-methyl-1-(3-(methylsulfonamido)-1H-pyrazole-1-carbonyl)piperidin-4-yl)amino)methyl)-5-(trifluoromethyl)phenyl)pyrrolidine-3-carboxylic acid], the inhibition at 1 µM in assay [1] lay within 0 to 25%; in assay [2], 25 to 50%; in assay [3] it was 0 to 25%; in assay [4] it was 25 to 50%.

Regarding `CS(=O)(=O)Nc1ccn(C(=O)N2CCC(Oc3ccc(C(F)(F)F)cc3NCC(=O)O)CC2)n1` [Example 99, (2-((1-(3-(Methylsulfonamido)-1H-pyrazole-1-carbonyl)piperidin-4-yl)oxy)-5-(trifluoromethyl)phenyl)glycine], the inhibition at 1 µM in assay [1] is 0 to 25%; in assay [2], more than 75%; in assay [3] it was 0 to 25%; in assay [4] it was more than 75%.

On to `CS(=O)(=O)Nc1ccn(C(=O)N2CCC(Oc3ccc(C(F)(F)F)cc3N3CCCC3=O)CC2)n1` [Example 100, N-(1-(4-(2-(2-Oxopyrrolidin-1-yl)-4-(trifluoromethyl)phenoxy)piperidine-1-carbonyl)-1H-pyrazol-3-yl)methanesulfonamide], for which the inhibition at 1 µM in assay [1] is 0 to 25%; in assay [2], 50 to 75%; in assay [3] it was 0 to 25%; in assay [4], 50 to 75%.
